Measurements: PMC6100056, “Antitumor Effects and Delivery Profiles of Menahydroquinone-4 Prodrugs with Ionic or Nonionic Promoiety to Hepatocellular Carcinoma Cells” (Molecules : A Journal of Synthetic Chemistry and Natural …, 2018)
Where a name gives a salt, the structure may show the parent alone.

Experiments:
[1] = system: cyclin D1 and CDK4 in PLC/PRF/5 cells; experiment: Western blotting of cell cycle regulatory proteins; assay type: cell-based; conditions: 24 h after treatment
Method: We previously reported that MKH-DMG regulates cell cycle-related proteins as a mechanism of MKH-DMG-induced growth inhibition in PLC/PRF/5, Hep3B and SK-Hep-1 cells. Thus, to clarify the mechanisms of the growth inhibition induced by the MKH-ester prodrugs, we analyzed cell cycle-related proteins using Western blotting (Figure 7).
HCC cells were plated at 1.5 × 10^5 cells/well in 6-well plates and allowed to attach for 48 h. Cells were treated with MK-4, MKH-ACT, MKH-DMG or MKH-SUC for 24 h. Western blotting was performed as described previously.

PLC/PRF/5 cells [2] = experiment: Uptake of MKH-ester derivatives in HCC cells (Michaelis-Menten kinetics); assay type: in vitro ADME; conditions: for Vmax (uptake of MKH-ester): PLC/PRF/5 cells, Michaelis-Menten fit, 95% confidence interval in square brackets
Method: (§1) To assess the uptake of the intrinsic MKH-ester derivatives as the first step of MKH delivery into HCC cells, the velocities of uptake of MKH-ester derivatives were plotted and fitted with the Michaelis--Menten model (as shown in Figure 3), and the calculated kinetic parameters were determined (Table 1). All three derivatives increased in both PLC/PRF/5 and SK-Hep-1 cells in a dose-dependent manner. The uptake of MKH-SUC was clearly higher than that of MKH-DMG and MKH-ACT at all concentrations examined. The ratio of the […] (Vmax/Km) for MKH-SUC was about 5- to 10-fold higher than those for MKH-ACT and MKH-DMG in both cell lines.
(§2) HCC cells were plated at 1.5 × 10^5 cells/well in 6-well plates and allowed to attach for 48 h. Cells were cultured in medium containing MK-4, MKH-ACT, MKH-DMG or MKH-SUC for various intervals. After the drug exposure, media were removed, and cells were washed three times with PBS. Cells were collected in 1 mL of PBS and sonicated. The cell homogenates were combined with an equal volume of methanol and three times volume of n-hexane, vortexed for 2 min and centrifuged at 1750× g for 10 min. The organic layer was evaporated under N2 gas. The residue was reconstituted with 100 μL of methanol, sonicated for 10 s and subjected to LC-UV or LC-MS/MS analysis, as described below. The protein concentration of the cell homogenate was determined using a BCA protein assay kit.
(§3) The LC system was the same as that described in the 4.8.1 LC-MS/MS section, and the UV detector was a Prominence SPD-20A (Shimadzu Corp., Kyoto, Japan). Separations were performed on the same column mentioned in the 4.8.1 LC-MS/MS section and monitored at a wavelength of 240 nm. The mobile flow was a binary gradient: (A) 0.1% acetic acid in water and (B) 0.1% acetic acid in methanol. The total flow rate was 0.3 mL/min; 0 min at 80% B, 1 min at 80% B, 4.0 min at 100% B, 7.0 min at 100% B and 8.0 min at 80% B. The Column temperature was 40 °C. The retention times were as follows: MKH-DMG, 9.2 min; MKH-ACT, 8.2 min; and MKH-SUC, 6.6 min.
(§4) For the determination of Km and Vmax for the uptake and enzymatic activation of MKH-esters, concentration-dependency data were fit to the Michaelis--Menten equation:V = Vmax·[S]/(Km + [S])(1) where V represents the velocity of action between the substrate and transportation/enzymatic reaction, [S] refers to the concentration of the substrate and Km is defined as the concentration of substrate at the half-maximal rate of action (Vmax). Data were analyzed by GraphPad Prism (GraphPad Software).

SK-Hep-1 cells [3] = experiment: as above; assay type: in vitro ADME; conditions: Michaelis-Menten fit, 95% confidence interval in square brackets
Method: as §1, §2, §3, §4

[4] = as above; assay type: in vitro ADME; conditions: human, Michaelis-Menten fit, 95% confidence interval in square brackets
Method: as §1, §2, §3, §4

PLC/PRF/5 cells [5] = experiment: Cell viability assay (Cell Titer-Glo); assay type: cell-based; conditions: for IC50: Homo sapiens, 95% confidence interval in square brackets; for IC50 lower than that of MK-4: 96 h of treatment
Method: (§5) To assess the effects of MKH-ester prodrugs on HCC cell proliferation, DCP-positive (PLC/PRF/5) and DCP-negative (SK-Hep-1) HCC cell lines were treated with various concentrations of MKH-ACT, MKH-DMG, MKH-SUC or MK-4 up to 96 h, and cell viability was determined.
(§6) Cell viability was determined using a previously reported method. Briefly, PLC/PRF/5 and SK-Hep-1 cells were plated at 5.0 × 10^3 cells/well in 96-well plates and allowed to attach for 48 h. MK-4 and MKH-ACT were dissolved in 99.5% ethanol. MKH-SUC was dissolved in DMSO. MKH-DMG was dissolved in sterilized water. Stock solutions of each drug (50 mM) were diluted to the intended final concentrations with medium. Cells were exposed to MK-4, MKH-ACT, MKH-DMG or MKH-SUC for up to 96 h, and cell viability was evaluated using the Cell Titer-Glo Luminescent Cell Viability Assay (Promega, Madison, WI, USA) according to the manufacturer’s instructions. IC50 values were determined by a log [drug] vs. normalized response-variable slope analysis of GraphPad Prism, version 6.0 (GraphPad Software, San Diego, CA, USA).

SK-Hep-1 cells [6] = experiment: Cell viability assay (Cell Titer-Glo); assay type: cell-based; conditions: for IC50 lower than that of MK-4: 96 h of treatment; for IC50: Homo sapiens, 95% confidence interval in square brackets
Method: as §5, §6

[7] = PLC/PRF/5 cells (HCC cell line), PLC/PRF/5 cells

Row | Structure (SMILES) | Effect on cyclin D1 and CDK4 expression compared with controls [1] | Vmax (uptake of MKH-ester) (PLC/PRF/5 cells [2]) | Vmax (uptake of MKH-ester) (SK-Hep-1 cells [3]) | Km [4, 7] [µM] | Km ([4]; SK-Hep-1 cells (HCC cell line)) [µM] | IC50 (PLC/PRF/5 cells [5]; 72 h) [µM] | IC50 (PLC/PRF/5 cells [5]; 96 h) [µM] | IC50 lower than that of MK-4 (SK-Hep-1 cells [6]) [fold] | IC50 (SK-Hep-1 cells [6]; SK-HEP1, 72 h) [µM] | IC50 (SK-Hep-1 cells [6]; SK-HEP1, 96 h) [µM] | IC50 lower than that of MK-4 (PLC/PRF/5 cells [5]) [fold] | IC50 (PLC/PRF/5 cells [5]; 48 h) [µM] | IC50 (SK-Hep-1 cells [6]; SK-HEP1, 48 h) [µM] | Vmax/Km of uptake, higher than those for MKH-ACT and MKH-DMG (PLC/PRF/5 cells [2]; in both cell lines (PLC/PRF/5 and SK-Hep-1))
1 | CC(=O)Oc1c(C)c(C/C=C(\C)CC/C=C(\C)CC/C=C(\C)CCC=C(C)C)c(OC(C)=O)c2ccccc12 [MKH-ACT, Menahydroquinone-4 1,4-bis acetate] | did not affect | 2.76 [1.70 to 3.81] nmol·mg of Protein^−1·h^−1 | 20.3 [−9.47 to 50.0] nmol·mg of Protein^−1·h^−1 | 31.9 | 227 | 152 | 114 | 1.23 | 71.6 | 71.9 |  |  |  | 
2 | CC(C)=CCC/C(C)=C/CC/C(C)=C/CC/C(C)=C/Cc1c(C)c(OC(=O)CN(C)C)c2ccccc2c1OC(=O)CN(C)C [MKH-DMG, Menahydroquinone-4 1,4-bis-N,N-dimethylglycinate hydrochloride] | clearly suppressed | 28.9 [−4.27 to 62.1] nmol·mg of Protein^−1·h^−1 | 62.6 [4.69 to 121] nmol·mg of Protein^−1·h^−1 | 447 | 556 | 33.4 | 27.4 | 3.61 | 32.5 | 24.4 | 3.17 | 63 | 71.3 | 
3 | CC(C)=CCC/C(C)=C/CC/C(C)=C/CC/C(C)=C/Cc1c(C)c(OC(=O)CCC(=O)O)c2ccccc2c1OC(=O)CCC(=O)O [MKH-SUC, Menahydroquinone-4 1,4-bis hemisuccinate] | clearly suppressed | 345 [84.0 to 606] nmol·mg of Protein^−1·h^−1 | 261 [74.7 to 448] nmol·mg of Protein^−1·h^−1 | 712 | 381 | 26.6 | 20.1 | 12.3 | 15.8 | 7.16 | 4.32 | 48.9 | 78.1 | 5- to 10 fold
